One assay deals with FaDu. The experiment in a line: Cytotoxicity assay (propidium iodide), FaDu. The class given is cell-based. Particulars: Homo sapiens; FaDu (C11a, hypopharyngeal); 48 hours.
The test system of a further assay is TNF-α. Kind of assay: Human monocyte assay, LPS-stimulated TNF-α. The class given is cell-based. The conditions noted are these: human monocytes, 1 μg/ml LPS, 5 hours. The method, then:
The assay was designed as in the reference, Physiol.
Peripheral blood mononuclear cells (hPBMC) were harvested from human blood and suspended in RPMI 1640 culture medium containing 10% FCS, 100 U/mL penicillin and […] streptomycin (assay medium). Monocytes in the hPBMCs were counted using a Coulter Counter following which the cells were resuspended at 2×10^5 monocytes/mL. A cell suspension containing 2×10^4 monocytes was aliquoted per well of a 96-well plate. Subsequently, the hPBMCs were incubated for 4-5 hours at 37° C., 5% CO2 (During the incubation, the monocytes adhered to the bottom of 96-well plastic culture plate). Following the incubation, the non-adherent lymphocytes were washed with assay medium and the adherent monocytes re-fed with assay medium. After a 48-hour incubation period (37° C., 5% CO2), monocytes were pretreated with various concentrations of representative compounds of present invention (refer to table 6 and 7) (prepared in DMSO) or vehicle (0.5% DMSO) for 30 minutes and stimulated with 1 μg/ml LPS (Escherchia coli 0111:B4, Sigma Chemical Co., St. Louis, Mo.). The incubation was continued for 5 hours at 37° C., 5% CO2. Supernatants were harvested, assayed for IL-6 and TNF-α by ELISA as described by the manufacturer (BD Biosciences, USA). Dexamethasone (10 μM) was used as standard for this assay. […] Biological results for both IL-6 and TNFα are indicated in Table 6 and Table 7 respectively.

For another assay, the system named is OVCAR 3. Kind of assay: Cytotoxicity assay (propidium iodide), OVCAR 3. Format: cell-based. The conditions noted are these: Homo sapiens; OVCAR 3 (C3c, ovarian); 48 hours.
In a further assay the test system is HCT116. Kind of assay: Cytotoxicity assay (propidium iodide), HCT116. Particulars: Homo sapiens, HCT-116; HCT116 (C4b, colon); 48 hours. The class given is cell-based.
The subject of a further assay is RPMI 8226. The experiment in a line: Cytotoxicity assay (propidium iodide), RPMI 8226. Format: cell-based. The conditions noted are these: Homo sapiens; RPMI 8226 (C7b, multiple myeloma); 48 hours.
Another assay relates to G361. The experiment in a line: Cytotoxicity assay (propidium iodide), G361. The class given is cell-based. The conditions noted are these: G-361; G361 (C9a, human melanoma); 48 hours.
The subject of another assay is PC3. The experiment in a line: Cytotoxicity assay (propidium iodide), PC3. The conditions noted are these: Homo sapiens, PC-3, 48 h, read-out: IC50 cytotoxicity.
The test system of a further assay is MDA MB 231. Kind of assay: Cytotoxicity assay (propidium iodide), MDA MB 231. Format: cell-based. The conditions noted are these: Homo sapiens; MDA MB 231 (C6a, breast); 48 hours.
For a further assay, the system named is MDA MB 468. Kind of assay: Cytotoxicity assay (propidium iodide), MDA MB 468. The conditions noted are these: Homo sapiens; MDA MB 468 (C6b, breast); 48 hours. Format: cell-based.
A further assay deals with BT 549. The experiment in a line: Cytotoxicity assay (propidium iodide), BT 549. Format: cell-based. The conditions noted are these: Homo sapiens; BT 549 (C6d, breast); 48 hours.
A further assay deals with H460. The experiment in a line: Cytotoxicity assay (propidium iodide), H460. Format: cell-based. Particulars: Homo sapiens, NCI-H460; H460 (C1b, lung); 48 hours.
A further assay deals with MCF7. The experiment in a line: Cytotoxicity assay (propidium iodide), MCF7. Format: cell-based. The conditions noted are these: Homo sapiens; MCF7 (C6c, breast); 48 hours.
In a further assay the test system is U266B1. Kind of assay: Cytotoxicity assay (propidium iodide), U266B1. The class given is cell-based. The conditions noted are these: U266B1 (C7a, multiple myeloma); 48 hours.
The next assay has as its system U 87 MG. Kind of assay: Cytotoxicity assay (propidium iodide), U 87 MG. Format: cell-based. The conditions noted are these: Homo sapiens; U 87 MG (C8b, glioblastoma); 48 hours.
The next assay has as its system U 373. Kind of assay: Cytotoxicity assay (propidium iodide), U 373. Format: cell-based. The conditions noted are these: Homo sapiens, U373 MG; U 373 (C8a, glioblastoma); 48 hours.
Assay [1] concerns DSS-induced colitis in C57BL/6J mice. Kind of assay: Ulcerative colitis, DSS-induced colitis in mice. The class given is in vivo. The conditions noted are these: 3% DSS, 10 mg/kg orally daily, day 6 to day 10. The method, then: The efficacy of compounds of the present invention on the gross pathology of colitis and proinflammatory mediators was determined by following the method described in Am. J. Physiol. Gastrointest. Liver Physiol.
C57BL/6J mice (6 weeks of age, weighing 18-22 gms) were obtained from Jackson Laboratories (Bar Harbor, Me.) and housed in individually ventilated cage (IVC) system. Colitis was induced in mice by replacing drinking water with 3% (w/v) DSS (molecular weight 35-50 kDa, ICN Biomedicals, Aurora, Ohio, US) in water. This solution was made available to the experimental animals ad libitum, from day 0 to day 10. A batch of six naive animals received water instead of DSS during this period.
DSS-induction of colitis was manifested with increase in clinical disease activity index associated with weight loss and presence of blood in feces.
The animals were weighed every day and the record of body weights was maintained. The compound of Example 25 (10 mg/kg, prepared at a concentration of 1 mg/mL in 0.5% (w/v) CMC after mixing a drop of Tween 20) was administered orally daily to the colitis induced animals. This treatment was initiated on day 6 and continued up to day 10. During this period, DSS control animals received DSS, positive control animals received 5-aminosalicylic acid (5-ASA, 25 mg/kg, p.o.) and naïve animals received 0.5% CMC once daily.
At the end of DSS treatment period, mice were humanely euthanized with 15% urethane (i.p.). The whole colon (i.e., including ceacum, proximal colon and distal colon) was excised.
The colon was macrosopically assessed by determining • a) Rectal bleeding/blood in faeces • b) Stool consistency • c) Blood in colon • d) Colon length • e) % weight loss • f) Blood hemoglobin concentration
Disease Activity Index: various features were scored as delineated in the following table.
Disease activity index is the sum of scores of all features.

The structures appear in SMILES notation.

Experimental for BT 549: (§1) Cells from cell lines as mentioned in the table given below were seeded at a density of 3000 cells/well in a white opaque 96-well plate. Following incubation at 37° C./5% CO2 for a period of 18-24 hours, the cells were treated with various concentrations (stock solution was prepared in DMSO and subsequent dilutions were made in media as per ATCC guidelines) of the representative compounds of present invention (refer table 3) for a period of 48 hours. At the end of treatment, the spent culture medium was discarded, the cells were washed with 1×PBS and 200 μl of 7 μg/ml propidium iodide was added to each well. The plates were frozen at −70° C. for at least 24 hours. For analysis, the plates were brought to RT, allowed to thaw and were read in PolarStar fluorimeter with the fluorescence setting. The percentage of viable cells in the non treated set of wells was considered to be 100 and the percentage viability following treatment was calculated accordingly. IC50 values were calculated from graphs plotted using these percentages.
Experimental for FaDu: as §1
Experimental for G361: as §1
Experimental for H460: as §1
Experimental for HCT116: as §1
Experimental for MCF7: as §1
Experimental for MDA MB 231: as §1
Experimental for MDA MB 468: as §1
Experimental for OVCAR 3: as §1
Experimental for PC3: as §1
Experimental for RPMI 8226: as §1
Experimental for U 373: as §1
Experimental for U 87 MG: as §1
Experimental for U266B1: as §1

Usually IC50 stands for the point on the concentration scale where inhibition reaches its midpoint. For the compound `CN(N=Cc1cnc2ccc(-c3cccnc3)cn12)S(=O)(=O)c1cccc(F)c1` [Example 5, 3-Fluoro-N-methyl-N′-((6-(pyridine-3-yl)imidazo[1,2-a]pyridine-3-yl)methylene)benzenesulfonohydrazide], the IC50 in the assay on FaDu was 10 to 5000 nM; in the assay on TNF-α it was 1000 to 15000 nM; in the assay with OVCAR 3 it was 10 to 5000 nM; with HCT116 it was 10 to 5000 nM.
Take `CN(N=Cc1cnc2ccc(-c3cccnc3)cn12)S(=O)(=O)c1ccc(F)cc1` [Example 6, 4-Fluoro-N-methyl-N′-((6-(pyridine-3-yl)imidazo[1,2-a]pyridine-3-yl)methylene)benzenesulfonohydrazide]: the IC50 in the assay on FaDu was 10 to 5000 nM; with TNF-α it was 1 to 1000 nM; in the assay with OVCAR 3 it was 10 to 5000 nM; in the assay with HCT116 it was 10 to 5000 nM.
`CN(N=Cc1cnc2ccc(-c3cccnc3)cn12)S(=O)(=O)c1cc(F)cc(F)c1` [Example 16, 3,5-Difluoro-N-methyl-N′-((6-(pyridine-3-yl)imidazo[1,2-a]pyridine-3-yl)methylene) benzenesulfonohydrazide]: the IC50 in the assay on TNF-α lay in the range of 1 to 1000 nM.
Consider `Cc1ccc(F)cc1S(=O)(=O)N(C)N=Cc1cnc2ccc(-c3cccnc3)cn12` [Example 21, 5-Fluoro-N, 2-dimethyl-N′-((6-(pyridine-3-yl)imidazo[1,2-a]pyridine-3-yl)methylene) benzenesulfonohydrazide], for which the IC50 in the assay on RPMI 8226 fell in the range of 10 to 5000 nM; in the assay with G361, 10 to 5000 nM; in the assay on PC3 it was 10 to 5000 nM; with TNF-α, 1 to 1000 nM; with MDA MB 231 it was 10 to 5000 nM; in the assay on OVCAR 3, 10 to 5000 nM. Also, the IC50 in the assay with MDA MB 468, in the assay on BT 549, with H460, with HCT116, in the assay on MCF7 and with U266B1 was 10 to 5000 nM each time. Moreover, the IC50 in the assay on U 87 MG and with U 373 was 10 to 5000 nM each time.
Regarding `Cc1ccc([N+](=O)[O-])cc1S(=O)(=O)N(C)N=Cc1cnc2ccc(-c3cccnc3)cn12` [Example 25], the IC50 in the assay with PC3, in the assay with MDA MB 231, in the assay with OVCAR 3, in the assay with BT 549, in the assay on H460 and with HCT116 was 10 to 5000 nM in each case. The IC50 in the assay on MCF7 is 10 to 5000 nM. Besides, in assay [1], the “DSS-induced body weight loss” value is reported as “attenuated”. Further, in assay [1], the DSS-induced colon bleeding entry is “attenuated”. For the same compound, in [1], the “DSS-induced decrease in hematocrit” value is reported as “inhibited”. In addition, in [1], the “DSS-induced disease activity index” value is “reduced”. In [1], the “DSS-induced shortening of colon” value was “inhibited”. In addition, the rectal bleeding index result in assay [1] is “improved”.

(Values after patent US8741932B2, “Imidazopyridine derivatives” (Piramal Enterprises Limited, priority 2009, dated 2014).)
